Assay results as given in patent US6960687B2, “Derivatives and pharmaceutical compositions of n-hydroxyalkyl tetramethylcyclopropane-carboxamide, having anti-epiletic, neurological, and CNS activity, and method for their preparation” (priority 2002, dated 2005).

Columns and labels:
mice [1] = assay: 6 Hz psychomotor seizure model; conditions: for PI (6 Hz 44 mA): protective index at 44 mA stimulus; for ED50: Mus musculus, 0.25 h
mice [2] = assay: maximal electroshock seizure test (MES); format: in vivo
Procedure: The ED50 (mice ip) in the MES model is between 150 and 300 mg/kg in mice (Table 1). This value is slightly lower than that of VPA in mice. The results are indicative of the compound 1 having an efficacy against generalized seizures and complex partial seizures that evolve into generalized motor seizures.
(§1) Compound V of the above diagram (2-hydroxyethyl-tetramethylcyclopropane-carboxamide) was screened for its ability to protect against induced convulsions in MES and scMet test. […] At the sc Met (subcutaneous metrazole) test, 3 out of 4 mice were protected following ip administration of 50 mg/kg.

mice [3] = assay: subcutaneous metrazole test (sc Met); format: in vivo
Source text: This value is slightly lower (more efficacious) than that found for VPA in mice. The results are indicative of the compound 1 having an efficacy against absence seizures and ability to raise seizure threshold.
as §1

mice [4] = assay: neurotoxicity, rotorod ataxia test; format: in vivo
Procedure: (§2) Neurotoxicity of the claimed agents was assessed in mice (ip. administration) in the rotorod ataxia test. Compound 1 was neurotoxic in some of the mice tested at doses of above 146 mg/kg ip. The PI for compound 1 at the highest stimulus intensity (44 mA) in the 6 Hz test in mice was 1.1 compared to 0.91 for VPA.

[5] = test system: animal models of epilepsy; conditions: literature statement; cited from earlier work
mouse = conditions: literature statement; cited from earlier work
[6] = neurotoxicity, rotorod ataxia test; format: in vivo, mice; conditions: mouse, in vivo, ip
Procedure: as §2

mice [7] = conditions: cited from earlier work
[8] = ip, 15 min following administration

CC1(C)C(C(=O)NCO)C1(C)C [Compound 1, N-hydroxymethyl-tetramethylcyclopropane-carboxamide]
times more active compared to VPA, 6 Hz 32 mA test (mice [1]; mice, 32 mA): 1.38 times | times more active compared to VPA, 6 Hz 44 mA test (mice [1]; mice, 44 mA): 2.31 times | 6 Hz 22 mA ED50 (mice [1]; mice, ip, 15 min, stimulation intensity 22 mA): 75 mg/kg | 6 Hz 32 mA ED50 (mice [1]; mice, ip, 15 min, stimulation intensity 32 mA): 91 mg/kg | 6 Hz 44 mA ED50 (mice [1]; mice, ip, 15 min, stimulation intensity 44 mA): 134 mg/kg | PI (6 Hz 44 mA) (mice [1]; mice, ip): 1.1 | MES ED50 (mice [2]; [8]): 150 to 300 mg/kg | sc Met ED50 (mice [3]; [8]): 120 mg/kg | Neurotoxicity TD50 (mice [4]; mice, ip, 15 min following administration): 146 mg/kg | doses neurotoxic in some of the mice tested (mice [4]; mice, ip, rotorod ataxia test): above 146 mg/kg

CC1(C)C(C(=O)NCCO)C1(C)C [Compound V, 2-hydroxyethyl-tetramethylcyclopropane-carboxamide]
mice protected at the MES test (mice [2]; dose of 30 mg/kg ip): 1 out of 4 | mice protected at the sc Met test (mice [3]; ip administration of 50 mg/kg): 3 out of 4 | behavioral impairment (neurotoxicity) (mice [4]; dose of 50 mg/kg ip): did not show any behavioral impairment

CNC(=O)C1C(C)(C)C1(C)C [N-Methyl-tetramethylcyclopropane carboxamide]
potency relative to VPA in animal models of epilepsy [5]: approximately 10 times | teratogenicity (mouse): not teratogenic

CC1(C)C(C(N)=O)C1(C)C [Tetramethylcyclopropane carboxamide, Tetramethyl-cyclopropane-carboxamide]
teratogenicity (mouse): not teratogenic

CCCC(CCC)C(=O)O [VPA, valproic acid, reference compound]
ED50 (mice [1]; ip, read-out: 6 Hz 22 mA ED50): 42 mg/kg | ED50 (mice [1]; ip, read-out: 6 Hz 44 mA ED50): 310 mg/kg | PI (6 Hz 44 mA) (mice [1]; mice, ip): 0.91 | ED50 (mice [2]; Mus musculus, 0.25 h, ip, 15 min following administration): 271 mg/kg | TD50 at 15 min [6]: 283 mg/kg

CCC(C)C(CC)C(N)=O (stereo not drawn) [Valnoctamide (VCD), Valnoctamide]
teratogenicity (mouse): non-teratogenic

CC[C@@H](C(N)=O)N1CCCC1=O [levetiracetam]
ED50 in 6 Hz model at 44 mA stimulus (existing antiepileptic drugs) (mice [7]): 189 mg/kg

CCCC(C(N)=O)C(C)C (stereo not drawn) [propyl-isoproylacetamide (PID), propyl-isoproylacetamide]
teratogenicity (mouse): non-teratogenic
